“Also recorded” adds a separate entry of the source.
Legend:
Assay type in all cases: in vivo, mouse
[1] = tested on: NOD mice; experiment: Spontaneous diabetes incidence
Experimental: Female NOD, BALB/c, C57BL/6J, C57BL/6J camp−/− in different ages were used, bred and housed in specific pathogen-free conditions. Recombinant mouse CRAMP1-39 and scrambled (sc)CRAMP1-39 were produced under aseptic conditions and provided after endotoxin removal processing (Innovagen). Newborn NOD mice were treated by intra-colonic treatment between 10 and 21 days of age every 3 days with CRAMP or scCRAMP (10 μg in 10 μL/mouse/injection) or vehicle (PBS-1% H2O). For blocking TLR experiments, newborn NOD mice were treated between 7 and 14 days of age every 3 days with TLR2 inhibitor CU CTP22 (25 μg in 10 μL/mouse/injection) or TLR4 inhibitor TAK242 (25 μg in 10 μL/mouse/injection) or with TLR5 inhibitor TH1020 (20 μg in 10 μL/mouse/injection) or with vehicle (PBS 1% DMSO). All inhibitors are from Tocris. For modulating IFNα experiment, newborn NOD mice were treated between 7 and 14 days of age every 3 days with anti-IFNα receptor mAb (200 μg in 10 μL/mouse/injection) (BioXcell) or equivalent amount of isotype control (mouse IgGI) or gardiquimod (50 μg in 10 μL/mouse/injection) or vehicle (PBS-1% H2O). For CRAMP-expressing probiotic experiment, pregnant NOD mice were given CRAMP-expressing Lactococcus lactis or conventional L. lactis ([…] colony forming units (cfu) in 100 μL PBS/mice) by oral gavage one day before delivery. For cross-fostering experiments, NOD pups were adopted immediately at birth by recipient mice (C57BL/6, BALB/c, CRAMP-treated NOD mice or NOD mice), that delivered the same day and pups from the two litters were maintained in the same cage. All animal experimental protocols were approved by the ethic committee for animal experimentation (APAFIS #3535-2015092416202090).
NOD mice were treated as described above with CRAMP or scCRAMP, anti-IFNαR mAb, gardiquimod or were born from CRAMP-expressing L. lactis treated NOD mice or were cross-fostered by CRAMP-treated NOD mice. […]
Diabetes incidence was plotted according to the Kaplan-Meier method. […] All data were analyzed using GraphPad Prism v6 software.

[2] = tested on: Treg cells; experiment: Flow cytometry of regulatory T cells in tissues
Experimental: (§1) Pancreata were perfused with a solution of collagenase P in HBSS-1% HEPES (0.75 mg.ml-1, Roche), then dissected free from surrounding tissues. Pancreata were digested at 37° C. for 8 min. Digestion was stopped by adding HBSS-10% FCS-1% EDTA followed by extensive washes. For flow cytometry analysis, islets were isolated on a discontinuous Ficoll® PM400 gradient (Sigma-Aldrich) and then isolated islets were handpicked to exclude contaminations from intrapancreatic lymph nodes. Cells were released from the islets by incubation at 37° C. for 6 min in non-enzymatic cell dissociation solution (Sigma-Aldrich). For RT-qPCR, to avoid potential contamination by exocrine tissue, islets were purified by handpicking in 3 consecutive baths of HBSS-10% FCS supplemented with 1% DNAse 1.
Immune cells from the colon were isolated using the Lamina Propria Dissociation Kit from Miltenyi (#130-097-410), combined with gentleMACS™ Octo dissociator with heaters (#130-096-427) according to the manufacturer's instructions.
(§2) Single cell suspensions were prepared from various tissues, surface staining was performed after FcγRII/III blocking (anti-CD16/CD32) for 5 min at 4° C. and were surface stained for 30 min at 4° C. Staining buffer was PBS containing 2% FCS, 0.5% EDTA and 0.1% sodium azide. […] Stained cells were analyzed on a Becton Dickinson Fortessa flow cytometer. Data were analyzed with Flowjo™ v10 software.

[3] = tested on: microbiota; experiment: 16S rDNA gene sequencing of microbiota composition; details: 5 weeks of age, after intracolonic CRAMP in newborn NOD mice
Experimental: Stools were recovered from 5 mice from 5 independent cages per group, and were stored at −80° C. in DNA/RNA Shield™ (Zymo Research, #R1100-250) immediately after emission before shipment to Zymo Research (ZymoBIOMICS Services). For CRAMP treatment experiments, pups from different litters were randomly mixed and then separate before treatment with CRAMP or scCRAMP. The samples were processed and analyzed with the ZymoBIOMICS® Targeted Sequencing Service for Microbiome Analysis (Zymo Research, Irvine, CA). DNA Extraction: One of three different DNA extraction kits was used depending on the sample type and sample volume. In most cases, the ZymoBIOMICS® DNA Miniprep Kit (Zymo Research, Irvine, CA) was used. For low biomass samples, such as skin swabs, the ZymoBIOMICS® DNA Microprep Kit (Zymo Research, Irvine, CA) was used as it permits for a lower elution volume, resulting in more concentrated DNA samples. For a large sample volume, the ZymoBIOMICS@-96 MagBead DNA Kit (Zymo Research, Irvine, CA) was used to extract DNA using an automated platform. Targeted Library Preparation: Bacterial 16S ribosomal RNA gene targeted sequencing was performed using the Quick-16S™ NGS Library Prep Kit (Zymo Research, Irvine, CA). The bacterial 16S primers amplified the V1-V2 or V3-V4 region of the 16S rRNA gene. These primers have been custom-designed by Zymo Research to provide the best coverage of the 16S gene while maintaining high sensitivity. Fungal ITS gene targeted sequencing was performed using the Quick-16S™ NGS Library Prep Kit with custom ITS2 primers substituted for 16S primers. […] The final PCR products were quantified with qPCR fluorescence readings and pooled together based on equal molarity. The final pooled library was cleaned up with the Select-a-Size DNA Clean & Concentrator™ (Zymo Research, Irvine, CA), then quantified with TapeStation®(Agilent Technologies, Santa Clara, CA) and Qubit® (Thermo Fisher Scientific, Waltham, […]). […] Bioinformatics Analysis: Unique amplicon sequences were inferred from raw reads using the DADA2 pipeline. […]

[4] = tested on: TLR2 ligands; experiment: TLR2 ligand levels in colon extract (HEK-blue TLR reporter cells); details: NOD mice, intracolonic CRAMP treatment
Experimental: (§3) Colons from 2-week-old mice were recovered in 100 μL PBS, cut in some pieces and homogenized by vortexing. Cell-free supernatant was recovered after centrifugation at 10 000 g for 10 min. A 100-fold dilution was used to measure TLR2 and TLR4 ligand levels in the supernatants using HEK-blue™ TLR reporter cells ([…], #hkb-mtlr2 and #hkb-mtlr4) according to the manufacturer protocol.

[5] = tested on: TLR4 ligands; experiment: TLR4 ligand levels in colon extract (HEK-blue TLR reporter cells); details: NOD mice, intracolonic CRAMP treatment
Experimental: as §3

[6] = tested on: inflammatory and regulatory cytokines in colon; experiment: Cytokine expression in colon (RT-qPCR)
Experimental: (§4) Total RNA was isolated using the Nucleospin RNA XS kit (Macherey-Nagel) from a minimum of 100 handpicked islets per mouse or using Nucleospin RNA kit (Macherey-Nagel) for colon tissue. RNA was reverse transcribed to synthesized cDNA using the high capacity cDNA reverse transcription kit (ThermoFisher) and measurements were performed by qPCR using Power SYBR® Green (ThermoFisher) on a 7900HT Fast System (Applied Biosystems). Resulting levels of fluorescence were submitted to relative quantification by normalization against a housekeeping gene (GAPDH) and expressed as 2-(ΔCT) values.

[7] = tested on: IGRP206-214-specific CD8+ T cells; experiment: Flow cytometry of diabetogenic IGRP206-214-specific CD8+ T cells; details: 12-week-old NOD mice after intracolonic CRAMP as newborns
Experimental: as §1
as §2, with “azide. For detection of the subsets of conventional dendritic cells, cells suspension were surface stained with anti-CD45, -TCRβ, -CD19-CD11c, -F4/80, -CD103, -CD11b.” for “azide.”

[8] = tested on: type I IFN signature; experiment: Colonic type I IFN signature (RNAseq, RT-qPCR)
Experimental: as §4
Colon tissue was recovered from 5 mice from 5 independent cages per group. Total RNA were isolated from colon using the RNeasy Kit (QIAGEN) including a DNAse treatment step. RNA quality was assessed using RNA Screen Tape 6000 Pico LabChips with the Tape Station (Agilent Technologies) and RNA concentration was measured by spectrophometry using the Xpose (Trinean). RNAseq libraries were prepared starting from 1 μg of total RNA using the TruSeq Stranded mRNA LT Sample Prep Kit (Illumina) as recommended by the manufacturer. […] A mean of 23 million of paired-end reads was produced per library sample (between 21 to 25 million of passing filter reads). The generated data were analyzed using the Ingenuity Pathway Analysis software (Qiagen).

Compound | diabetes incidence ([1]; gardiquimod, intracolonic, newborn female NOD mice) | frequency of pancreatic LAP+ Treg cells ([2]; male NOD mice, intracolonic gardiquimod at 10 days of age, pancreatic islets at 12 weeks of age) | abundance of the genera Lactobacillus and Bifidobacterium [3] | abundance of the genus Alistipes [3] | microbiota composition ([3]; control scCRAMP) | level of TLR2 ligands in the colon [4] | level of TLR4 ligands in the colon [5] | cytokine profile in the colon ([6]; CRAMP treatment of adult NOD mice) | expression of inflammatory cytokines in colon ([6]; adult NOD colon after CRAMP treatment of newborn NOD mice) | frequency and absolute number of IGRP206-214-specific CD8+ effector T cells [7] | development (incidence) of diabetes ([1]; female NOD mice, intracolonic CRAMP every 3 days from 10 to 21 days of age, control scCRAMP, FIG. 1A) | incidence of diabetes in adopted NOD mice ([1]; newborn NOD mice from untreated dams cross-fostered to NOD dams treated by CRAMP between 10 and 21 days of age, FIG. 1) | type I IFN signature in the colon ([8]; colonic CRAMP treatment of 10-day-old NOD mice) | type I IFN signature in the newborns ([8]; newborn NOD mice cross-fostered by NOD dams previously treated with CRAMP at 10 days of age) | frequency and absolute number of Treg cells ([2]; prediabetic 12-week-old NOD mice after intracolonic CRAMP as newborns, pancreas, colon, PLN, MLN, spleen)
CCNCc1nc2c(N)nc3ccccc3c2n1CC(C)(C)O [gardiquimod, reference compound] | increased | decreased the frequency of pancreatic LAP+ Treg cells in the adult NOD mice | – | – | – | – | – | – | – | – | – | – | – | – | –
CRAMP | – | – | increased abundance | decreased abundance | changed microbiota composition in the adult mice | reduced the levels of TLR2 and TLR4 ligands in the colon | reduced the levels of TLR2 and TLR4 ligands in the colon | inefficient at changing the cytokine profile in the colon | prevented the overexpression of inflammatory cytokines in the adult NOD colon | decreased in the pancreas and PLN in the adult mice | significantly prevented the development of diabetes | decrease of diabetes development; also recorded: decreased incidence of diabetes in the adopted NOD mice | reduced | prevented the aberrant type I IFN signature in the newborns | increased the frequency, but not the absolute number, of Treg cells in the pancreas and colon of adult NOD mice

Reference: patent US20240335483A1, “NEW METHOD TO TREAT AUTOIMMUNE DISEASES” (INSTITUT NATIONAL DE LA SANTÉ ET DE LA RECHERCHE MÉDICALE, priority 2021, published 2024)
